Assay results as given in patent publication US5872124A, “Treatment of diseases of the central nervous system using uric acid as a scavenger of peroxynitrite” (Thomas Jefferson University, priority 1996, dated 1999).

Assays:
Water solubility = assay type: physicochemical
nitric oxide (NO) = test: NO level in spinal cord of Lewis rats with adoptive transfer EAE (spin trapping, EPR); assay type: in vivo
Description: In FIG. 1, EAE was elicited in 11 week old female Lewis rats by the adoptive transfer of 20×10^6 cells of the MBP-specific line 5HGBP.G5 activated by stimulation with MBP and syngeneic APC 48 hours previously and NO levels measured 5 days after transfer. In SWXJ-14 mice, EAE was triggered by two subcutaneous immunizations (d.0 and 7) with 100 μg PLP in CFA over two injection sites, and NO levels measured 18 days later. Results expressed represent the mean values obtained from a minimum of 4 animals. Peak severity of the symptoms of EAE ranged from 2-3 for the rats and 4-5 for the mice. NO was semi-quantitated using spin trapping with DETC and EPR-spectroscopy as described previously.
Rats were injected i.v. with 20×10^6 MBP-specific CD4 T cells activated in vitro. Two days later the animals were treated with a single dose of either PTIO (20 mg) or a mixture of PTIO (20 mg), indomethacin (1 mg), and allopurinol (13 mg). Treatment was continued on a daily basis until day 4 and animals were sacrificed for NO measurement the following day.

[1] = Side-effects of PTIO in EAE; assay type: in vivo
Description: The biological half-life of carboxy-PTIO are estimated to be less than five minutes in the blood when injected i.v. or i.p. into either rats or mice. Approximately 75% of the PTIO administered to mice can be accounted for in excretions within 4 hours. Nevertheless, the clinical symptoms of animals subjected to the stimuli that induce EAE and treated with PTIO are clearly alleviated for at least 24 hours between doses. […] It is possible that the removal of a significant quantity of NO may reduce the amount of tissue damage to a level that the animal can cope with. However, we believe that it is possible that the transient reduction of NO accumulation in an inflammatory response may have more wide ranging effects for instance through the disturbance of regulatory circuits effecting the production of NO or one of the other related substances involved in immunopathology. […] Through its effects on the circulation, NO may play a role in facilitating access of MBP specific T cells to the brain which could be inhibited by PTIO. It is also conceivable that a PTIO derivative formed by its interaction with NO also has some protective effect. […]

[2] = tested on: experimental allergic encephalomyelitis (EAE), immunization-elicited; test: Clinical severity of immunization-elicited EAE in SJL mice; assay type: in vivo
Excerpt: Induction of EAE in rats by adoptive transfer of MBP-specific T cells or in SJL or SWXJ-14 mice by immunization with MBP or PLP 139-151, a peptide derived from […] [8], results in variable disease. We have scored the clinical systems of EAE as tabulated below.
Severity scores and symptoms of Experimental Allergic
1 piloerection, tail weakness
3 hind limb weakness/paralysis
4 hind and forelimb paralysis
SJL mice are immunized subcutaneously with pMBP in adjuvant to induce EAE, from which they often recover. Commencing ten days post-immunization, groups of mice (n=6) were treated once daily with 2 mg of either PTIO or carboxy-PTIO intraperitoneally and observed for clinical signs of EAE which were graded as detailed in Table 1. […] At 18 days […], NO determinations were performed in several mice from each group.

[3] = mice, within 4 hours [17]; cited from earlier work

In the case of `CC1(C)N([O])C(c2ccccc2)=[N+]([O-])C1(C)C` [PTIO, 2-phenyl-4,4,5,5-tetramethylimidazoline-1-oxyl-3-oxide], the Water solubility (Water solubility) is reported as “not water soluble”, the NO-spinal cord (nitric oxide (NO); Rat-adoptive transfer EAE, Table 2) is reported as “undetectable” and the “Levels of NO in spinal cord” value (nitric oxide (NO); rats, adoptive transfer EAE, i.p. administration) is reported as “reduce levels of NO detected in spinal cord”. For the same compound, the Side-effects [1] was “without notable side-effects”, the “Onset and severity of EAE (FIG. 7)” value ([2]; 2 mg once daily i.p. from day 10 post-immunization, n=6) was “delayed onset of disease and somewhat lessened severity by comparison with untreated animals” and the “Clinical symptoms of EAE” value ([2]; SJL mice, i.p. administration) was “forestall the appearance of clinical symptoms of EAE”. The Clinical severity ([2]; SJL mouse - immunization EAE, severity score 1-5, Table 2) was 0.8 and the “Amount accounted for in excretions” value [3] was “Approximately 75%”.
